Experimental data published in patent publication US10705094B2, “TNF receptor signaling modulator assay” (UCB Biopharma SRL, priority 2015, dated 2020).

What was measured:
[1] = molecular target: TNFα binding to TNF receptor (ECD-TNFR) (Homo sapiens, UniProt P01375); experiment: Biacore in-solution competition/enhancement assay, TNFα/compound mix over immobilised ECD-TNFR; settings: Biacore A100/4000, 0.5-1 nM TNFα, highest concentration 20 μM; read-out: EC50 (compound induced enhanced binding of TNFα to TNF receptor)
Description: For this purpose a Biacore A100/4000 was used. […] For example a typical assay may use 20 μ[…] solution of compound. […] Control compounds were tested every 10-15 cycles. […] Background subtraction binding curves were analysed using the BIAevaluation software following standard procedures. The EC50 data was determined using a four parameter logistic fit. […] The RU (resonance unit) value for TNFα in the absence of compound was subtracted from the curves so these now show only the increase in binding induced by the compounds. The progress curves plateau at higher RU values as the concentration of compound increases.

TNFα [2] = molecular target: T1, TNFα (Homo sapiens, UniProt P01375); experiment: Surface plasmon resonance kinetics of compound binding to immobilised TNFα (Biacore T100/T200); settings: for dissociation half-life (t1/2): from koff; for kon / koff: immobilised TNFα, HBS-P with 5% DMSO; for koff: read-out: dissociation rate constant (koff)
Description: Surface plasmon resonance was used to measure the association rate, the dissociation rate and the affinity of the compounds of formulae (1) and (2) for TNFα (FIGS. 13A and B). For the purpose of this study a Biacore T100/T200 was used.
TNFα was immobilised at pH5 to a level of 5-8 KRU onto a CMS sensor in HBS-P buffer (10 mM HEPES pH 7.4, 0.15 M NaCl, 0.005% Surfactant P20, BIAcore, GE Healthcare). The TNFα was then equilibrated in HBS-P with 5% DMSO for at least 5 hours. The samples were diluted from 10 mM stocks into DMSO matched buffer and left to solubilise for at least 5 hours. The flow rate was 30 μL/min.
This assay was performed by adding 4 or 5 concentrations of compound starting from a highest concentration of 25 μM for compound of formula (1) and 1 μM for compound of formula (2) and then serially diluting this sample. Background subtraction binding curves were analysed using the BIAevaluation software following standard procedures. Binding, affinity and kinetic parameters were determined using Biacore software. The kinetic data were fitted using the levenberg marquardt algorithm.

TNFα [3] = molecular target: T1, TNFα; experiment: Fluorescence probed thermal denaturation assay (Thermofluor) of TNFα; type: binding; settings: TNFα + 5% DMSO + compound
Description: A fluorescence probed thermal denaturation assay was performed to assess the effect of the compounds on the thermal stability of TNFα as a measure of compound binding. The reaction mix contained 5 μl of 30×SYPRO® Orange dye (Invitrogen) and 5 μl of TNFα (at 1.0 mg/ml), 37.5 μl PBS, pH 7.4 and 2.5 μl of compound (at 2 mM in DMSO). 10 μl of the mix was dispensed in quadruplicate into a 384 PCR optical well plate and was run on a 7900HT Fast Real-Time PCR System ([…]). PCR System heating device was set at 20° C. to 99° C. with a ramp rate of 1.1° C./min; fluorescence changes in the wells were monitored by a Charge-coupled device (CCD). The fluorescence intensity increase was plotted as a function of temperature and the Tm calculated as the midpoint of this denaturation curve (determined as the point of inflection) (Table 1).
Thermofluor measures the change of melting temperature (Tm) of TNFα due to compound either stabilising or disrupting the protein.

TNFα [4] = molecular target: T1, TNFα; experiment: Fluorescence polarization assay, competition with the compound of formula (4) for TNFα; settings: TNFα 50 nM, compound of formula (4) 10 nM, 5% DMSO; read-out: IC50 (inhibition of binding of the compound of formula (4) to TNFα)
Description: The final concentrations of TNFα and the compound of formula (4) were 50 nM and 10 nM respectively in a total assay volume of 25 μl. Plates were read on an Analyst HT reader. An IC50 was calculated using xlfit (4 parameter logistic model) in Activity Base.
C87 was preincubated with TNFα for 1 hour prior to assay against the fluorescent compound (probe). Competition with the fluorescent compound either directly (binding at the same site) or indirectly (disrupting TNF) is detected by a reduction in FP.

TNFα [5] = molecular target: T1, TNFα; experiment: L929 murine fibrosarcoma cell-killing (neutralisation) assay; type: cell-based, mouse; parameters: host or cells: added to L929 murine fibrosarcoma cells (ECACC, 85011425); settings: L929 cells; read-out: IC50 (inhibition of cell killing activity of human TNFα)
Description: The L929 neutralisation assays were carried out using the protocol disclosed in Baarsch M J J et al (Immunol Methods 1991; 140: 15-22) and Galloway C J et al J (Immunol Methods 1991; 140: 37-43).
Briefly, L929 cells (ECACC, 85011425) were cultured in culture medium consisting of RPMI 1640 (Gibco) containing 10% FCS (PAA), 2 mM glutamine (Gibco), 50 U/ml penicillin (Gibco) and 50 μg/ml streptomycin (Gibco). When they were subcultured, the cells were washed three times with 10 mL Dulbecco's phosphate-buffered saline without calcium and magnesium (Gibco) and 3 ml of trypsin-EDTA (Gibco) was then added for 2 minutes to remove the cells from the flask. Culture medium was added to neutralise the trypsin and the cells pipetted up and down to remove any clumps.
The L929 cells were split 1/2 or 1/3 the day before use and cultured for a further 24 hours. The flasks were then trypsinised as above and 2×10^4 cells in 100 μl were added per well of a 96 well flat-bottomed plate (Becton Dickinson). The plates were cultured for 24 hours before the assay was set up.
Serial dilutions were made from DMSO stocks of the compounds.
The assay medium was the same as culture medium but also contained 1 μg/ml actinomycin D (Sigma). The medium was flicked off the plates and the assay samples plus TNFα, standards and controls were added in 100 μl volumes in duplicate. Plates were incubated for a further 16 hours and then 10 μl per well of a 5 mg/ml methylthiazoletetrazolium (MTT; Sigma) solution in culture medium was added for a further 4 hours. The reaction was stopped by the addition of 100 μl of solubilisation buffer containing 20% sodium dodecyl sulphate (SDS, BDH) dissolved in 50% dimethyl formamide (DMF; BDH) and 50% deionised water.
After overnight incubation at 37° C. to allow the dye to dissolve, the plates were read on a Multiskan EX plate reader (Labsystem) at 570 nm with subtraction at 630 nm. Data were analysed using the Genesis software package.

SMILES	EC50 [1]	Kd (TNFα [2]; calculated from koff/kon, read-out: dissociation constant (KD))	dissociation half-life (t1/2) (TNFα [2])	kon (TNFα [2])	koff (TNFα [2])	Tm difference (=(TNF + cpd) − (TNF + DMSO)) (TNFα [3])	IC50 (TNFα [4])	IC50 (TNFα [5])
Cc1ccc(C)c(Cn2c(C(O)c3ccncc3)nc3ccccc32)c1 (stereo not drawn) [Compound (1), [1-(2,5-Dimethylbenzyl)-1H-benzimidazol-2-yl](pyridin-4-yl)methanol]	298 nM	35 nM	over 2 hours	2670 M⁻¹ s⁻¹	9.46e-05 s⁻¹	11.8	167 nM	306 nM
Cc1ccc(C)c(Cn2c(C(O)c3ccncc3)nc3ccc(-c4cnn(C)c4)cc32)c1 (stereo not drawn) [Compound (2), [1-(2,5-Dimethylbenzyl)-6-(1-methyl-1H-pyrazol-4-yl)-1H-benzimidazol-2-yl](pyridin-4-yl)methanol]	280 nM		> 8 h	1120 M⁻¹ s⁻¹	2.24e-05 s⁻¹	17.1	102 nM	125 nM
